In PubChem BioAssay (NCI):
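These data come from cells grown in 96-well plates and exposed to compound for 48 hours at five concentrations. Abbreviation: GI50, concentration required for 50% inhibition of growth. TGI: total growth inhibition.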 Where a SMILES comes first, the peptide text is derived from it. [ ]: non-standard residue; d: D form. Phe(4-Cl) = N[CH](Cc1ccc(Cl)cc1)C(=O)O

Experiments:
Assay in all cases: growth of human tumour cells (NCI), 48 h
DLD-1 colon = tested on: DLD-1 colon
OVCAR-3 ovarian = tested on: OVCAR-3 ovarian
ACHN renal = tested on: ACHN renal
KM20L2 colon = tested on: KM20L2 colon
MALME-3M melanoma = tested on: MALME-3M melanoma
SK-MEL-28 melanoma = tested on: SK-MEL-28 melanoma
SK-OV-3 ovarian = tested on: SK-OV-3 ovarian
MDA-MB-435 = tested on: MDA-MB-435
NCI/ADR-RES ovarian = tested on: NCI/ADR-RES ovarian
MDA-MB-231 breast = tested on: MDA-MB-231 breast

Row | Compound | TGI (DLD-1 colon) | TGI (OVCAR-3 ovarian) | TGI (ACHN renal) | TGI (KM20L2 colon) | TGI (MALME-3M melanoma) | TGI (SK-MEL-28 melanoma) | GI50 (DLD-1 colon) | GI50 (OVCAR-3 ovarian) | GI50 (SK-OV-3 ovarian) | TGI (SK-OV-3 ovarian) | GI50 (ACHN renal) | GI50 (KM20L2 colon) | GI50 (MALME-3M melanoma) | GI50 (SK-MEL-28 melanoma) | TGI (MDA-MB-435) | TGI (NCI/ADR-RES ovarian) | TGI (MDA-MB-231 breast)
1 | Nc1ccc(/C=C/c2ccnc3ccccc23)cc1 | > 100 µM | 48.7 µM | > 100 µM | 46.6 µM | 97.3 µM | > 100 µM | – | – | – | – | – | – | – | – | – | – | –
2 | CC(=O)[CH-]C(=O)c1ccccc1.CC(=O)[CH-]C(=O)c1ccccc1.O=C([O-])c1ccc([O-])cc1.O=C([O-])c1ccc([O-])cc1.[Ti+4] | > 100 µM | > 100 µM | > 100 µM | > 100 µM | 66.8 µM | > 100 µM | > 100 µM | 33.4 µM | > 100 µM | > 100 µM | 75 µM | 51.1 µM | 23.6 µM | 41.6 µM | – | – | –
3 | C[N+](C)(C)CC1CCCC(C[N+](C)(C)C)C1=O (configuration not stated) | 0.386 µM | 1.36 µM | 1.82 µM | 5.5 µM | 0.487 µM | 3.75 µM | – | – | – | 26 µM | – | – | – | – | 3.43 µM | 7.27 µM | 3.58 µM
4 | CCCCCCCCCCCCCC1CCC(CC)N1 (configuration not stated) | 28.9 µM | 30.2 µM | 17.4 µM | 26.2 µM | 33.8 µM | 18.6 µM | – | – | – | 30.7 µM | – | – | – | – | – | – | –
5 | COc1ccc2c(c1)C=C([N+](=O)[O-])C(C1OC(C)(C)OC1C1COC(C)(C)O1)O2 (configuration not stated) | 3.15 µM | 21.8 µM | 6.53 µM | 17.3 µM | 6.15 µM | 3.83 µM | – | – | – | 24.2 µM | – | – | – | – | 14.8 µM | – | 6.6 µM
6 | CC(C)(C)OC(=O)Cc1ccc2c(ccn2Cc2ccccc2)c1 | > 100 µM | > 100 µM | > 100 µM | 77.2 µM | > 100 µM | > 100 µM | – | – | – | > 100 µM | – | – | – | – | – | – | –
7 | CC(C)N(C(=O)C12CC3CC(CC(C3)C1)C2)C(C)C | > 50 µM | > 50 µM | > 50 µM | > 50 µM | > 50 µM | > 50 µM | – | – | – | > 50 µM | – | – | – | – | – | – | –
8 | CC[O-].CC[O-].O=C1c2ccccc2C(=O)c2c(O)ccc([O-])c21.O=C1c2ccccc2C(=O)c2c(O)ccc([O-])c21.[Ti+4] | > 100 µM | > 100 µM | > 100 µM | > 100 µM | > 100 µM | > 100 µM | – | – | – | > 100 µM | – | > 100 µM | – | – | – | – | –
9 | N#Cc1nc(C2OC(COC(=O)c3ccccc3)C(OC(=O)c3ccccc3)C2OC(=O)c2ccccc2)oc1N (configuration not stated) | > 100 µM | > 100 µM | > 100 µM | > 100 µM | > 100 µM | > 100 µM | – | – | – | > 100 µM | – | – | – | – | – | – | –
10 | CC(O)C(NC(=O)C(Cc1ccccc1)NC(=O)C(NC(=O)C(CCCCN)NC(=O)C(Cc1c[nH]c2ccccc12)NC(=O)C(Cc1ccc(O)cc1)NC(=O)C(Cc1ccc(Cl)cc1)NC(=O)C(N)Cc1ccccc1)C(C)O)C(N)=O (configuration not stated) (H-F[Phe(4-Cl)]YWKTFT-NH2; configuration not given here) | 59.5 µM | 36.2 µM | 40.9 µM | 48.7 µM | – | 41.8 µM | – | – | – | 46.4 µM | – | – | – | – | – | – | –
11 | O=C(O)CN(c1ccccc1)S(=O)(=O)c1ccccc1[N+](=O)[O-] | > 100 µM | > 100 µM | > 100 µM | > 100 µM | > 100 µM | > 100 µM | – | – | – | > 100 µM | – | – | – | – | – | – | –
12 | Cc1ccc(S(=O)(=O)n2c(-c3ccccc3)c(-c3ccccc3)c3ccccc32)cc1 | > 100 µM | > 100 µM | > 100 µM | > 100 µM | > 100 µM | > 100 µM | – | – | – | > 100 µM | – | – | – | – | – | – | –
13 | COc1ccc2c(c1)CCC1C3(CCCC21C)OCCO3 (configuration not stated) | 34.5 µM | 35.5 µM | 78.9 µM | 39.2 µM | 58.8 µM | 35.3 µM | – | – | – | 60.9 µM | – | – | – | – | – | – | –
